Experimental data from the supplement of paper PMC11451515.

How the values were obtained:
Test in all cases: AUC of viability dose-response curve (% viability x log10 dose units); higher = less sensitive
Conditions in all cases: 48 h
SEM cells = tested on: SEM cells
How it was run: (§1)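 Leukemia cells adapted to each medium were seeded at 500 or 1000 cells/well in 1536-well plates and dosed with library compounds in DMSO at 11 threefold doses from 47 μM to 0.79 nM for 48 h at 37°C. CellTiter-Glo One luminescence was normalised per plate to DMSO and cell-free wells, then fitted with a four-parameter log-logistic model over log10 doses. Area under the curve was taken from this fit by the trapezoidal rule, with curves above full viability scaled and curves failing quality control removed.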

NOMO1 = tested on: NOMO1
How it was run: as §1

P12-Ichikawa = tested on: P12-Ichikawa
How it was run: as §1

[1] = RPMI 5 mM glucose + 10% dialyzed FBS

## CO[C@H]1C[C@@H]2CC[C@@H](C)[C@@](O)(O2)C(=O)C(=O)N2CCCC[C@H]2C(=O)O[C@H]([C@H](C)C[C@@H]2CC[C@@H](OCCO)[C@H](OC)C2)CC(=O)[C@H](C)/C=C(/C)[C@@H](O)[C@@H](OC)C(=O)[C@H](C)C[C@H](C)\C=C/C=C\C=C/1C
SEM cells; HPLM + 10% dialyzed FBS
  AUC of viability dose-response curve: 240
SEM cells; RPMI 5 mM glucose + 10% FBS
  AUC of viability dose-response curve: 234
SEM cells; [1]
  AUC of viability dose-response curve: 233
NOMO1; HPLM + 10% dialyzed FBS
  AUC of viability dose-response curve: 393
NOMO1; RPMI 5 mM glucose + 10% FBS
  AUC of viability dose-response curve: 421
NOMO1; [1]
  AUC of viability dose-response curve: 370
P12-Ichikawa; HPLM + 10% dialyzed FBS
  AUC of viability dose-response curve: 420
P12-Ichikawa; RPMI 5 mM glucose + 10% FBS
  AUC of viability dose-response curve: 329
P12-Ichikawa; [1]
  AUC of viability dose-response curve: 362

## C[S+]([O-])c1ccc(-c2nc(-c3ccc(F)cc3)c(-c3ccncc3)[nH]2)cc1 (stereo unspecified)
SEM cells; HPLM + 10% dialyzed FBS
  AUC of viability dose-response curve: 324
SEM cells; RPMI 5 mM glucose + 10% FBS
  AUC of viability dose-response curve: 314
SEM cells; [1]
  AUC of viability dose-response curve: 324
NOMO1; HPLM + 10% dialyzed FBS
  AUC of viability dose-response curve: 358
NOMO1; RPMI 5 mM glucose + 10% FBS
  AUC of viability dose-response curve: 357
NOMO1; [1]
  AUC of viability dose-response curve: 334
P12-Ichikawa; HPLM + 10% dialyzed FBS
  AUC of viability dose-response curve: 380
P12-Ichikawa; RPMI 5 mM glucose + 10% FBS
  AUC of viability dose-response curve: 359
P12-Ichikawa; [1]
  AUC of viability dose-response curve: 367

## COc1ccc(Nc2cc(-c3cnc(N)nc3)nc(N3CCOCC3)n2)cn1
SEM cells; HPLM + 10% dialyzed FBS
  AUC of viability dose-response curve: 398
SEM cells; RPMI 5 mM glucose + 10% FBS
  AUC of viability dose-response curve: 418
SEM cells; [1]
  AUC of viability dose-response curve: 389
NOMO1; HPLM + 10% dialyzed FBS
  AUC of viability dose-response curve: 373
NOMO1; RPMI 5 mM glucose + 10% FBS
  AUC of viability dose-response curve: 375
NOMO1; [1]
  AUC of viability dose-response curve: 361
P12-Ichikawa; HPLM + 10% dialyzed FBS
  AUC of viability dose-response curve: 433
P12-Ichikawa; RPMI 5 mM glucose + 10% FBS
  AUC of viability dose-response curve: 387
P12-Ichikawa; [1]
  AUC of viability dose-response curve: 399

## O=C1N\2CCC3=C([NH]C4=C3C=CC=C4)C2=N/C5=CC=CC=C15
SEM cells; HPLM + 10% dialyzed FBS
  AUC of viability dose-response curve: 461
SEM cells; RPMI 5 mM glucose + 10% FBS
  AUC of viability dose-response curve: 456
SEM cells; [1]
  AUC of viability dose-response curve: 451
NOMO1; HPLM + 10% dialyzed FBS
  AUC of viability dose-response curve: 465
NOMO1; RPMI 5 mM glucose + 10% FBS
  AUC of viability dose-response curve: 461
NOMO1; [1]
  AUC of viability dose-response curve: 466
P12-Ichikawa; HPLM + 10% dialyzed FBS
  AUC of viability dose-response curve: 465
P12-Ichikawa; RPMI 5 mM glucose + 10% FBS
  AUC of viability dose-response curve: 457
P12-Ichikawa; [1]
  AUC of viability dose-response curve: 454

## CC(C)c1ccccc1Cc1cc(C(=O)Nc2ccc([S+](=O)([O-])c3ccccc3C(C)(C)C)cc2)c(O)c(O)c1O
SEM cells; HPLM + 10% dialyzed FBS
  AUC of viability dose-response curve: 449
SEM cells; RPMI 5 mM glucose + 10% FBS
  AUC of viability dose-response curve: 426
SEM cells; [1]
  AUC of viability dose-response curve: 422
NOMO1; HPLM + 10% dialyzed FBS
  AUC of viability dose-response curve: 408
NOMO1; RPMI 5 mM glucose + 10% FBS
  AUC of viability dose-response curve: 467
NOMO1; [1]
  AUC of viability dose-response curve: 464
P12-Ichikawa; HPLM + 10% dialyzed FBS
  AUC of viability dose-response curve: 451
P12-Ichikawa; RPMI 5 mM glucose + 10% FBS
  AUC of viability dose-response curve: 460
P12-Ichikawa; [1]
  AUC of viability dose-response curve: 457

## CCCCCCCCc1ccc(CCC(N)(CO)CO)cc1
SEM cells; HPLM + 10% dialyzed FBS
  AUC of viability dose-response curve: 441
SEM cells; RPMI 5 mM glucose + 10% FBS
  AUC of viability dose-response curve: 452
SEM cells; [1]
  AUC of viability dose-response curve: 454
NOMO1; HPLM + 10% dialyzed FBS
  AUC of viability dose-response curve: 353
NOMO1; RPMI 5 mM glucose + 10% FBS
  AUC of viability dose-response curve: 433
NOMO1; [1]
  AUC of viability dose-response curve: 401
P12-Ichikawa; HPLM + 10% dialyzed FBS
  AUC of viability dose-response curve: 432
P12-Ichikawa; RPMI 5 mM glucose + 10% FBS
  AUC of viability dose-response curve: 407
P12-Ichikawa; [1]
  AUC of viability dose-response curve: 429

## CCNC(=O)[C@H]1O[C@@H](n2cnc3c(N)nc(NCCc4ccc(CCC(=O)O)cc4)nc32)[C@H](O)[C@@H]1O
SEM cells; HPLM + 10% dialyzed FBS
  AUC of viability dose-response curve: 470
SEM cells; RPMI 5 mM glucose + 10% FBS
  AUC of viability dose-response curve: 421
SEM cells; [1]
  AUC of viability dose-response curve: 469
NOMO1; HPLM + 10% dialyzed FBS
  AUC of viability dose-response curve: 458
NOMO1; RPMI 5 mM glucose + 10% FBS
  AUC of viability dose-response curve: 437
NOMO1; [1]
  AUC of viability dose-response curve: 442
P12-Ichikawa; HPLM + 10% dialyzed FBS
  AUC of viability dose-response curve: 465
P12-Ichikawa; RPMI 5 mM glucose + 10% FBS
  AUC of viability dose-response curve: 456
P12-Ichikawa; [1]
  AUC of viability dose-response curve: 462

## COc1cc2ncnc(Nc3cccc(Br)c3)c2cc1OC
SEM cells; HPLM + 10% dialyzed FBS
  AUC of viability dose-response curve: 447
SEM cells; RPMI 5 mM glucose + 10% FBS
  AUC of viability dose-response curve: 460
SEM cells; [1]
  AUC of viability dose-response curve: 448
NOMO1; HPLM + 10% dialyzed FBS
  AUC of viability dose-response curve: 475
NOMO1; RPMI 5 mM glucose + 10% FBS
  AUC of viability dose-response curve: 447
NOMO1; [1]
  AUC of viability dose-response curve: 460
P12-Ichikawa; HPLM + 10% dialyzed FBS
  AUC of viability dose-response curve: 451
P12-Ichikawa; RPMI 5 mM glucose + 10% FBS
  AUC of viability dose-response curve: 462
P12-Ichikawa; [1]
  AUC of viability dose-response curve: 464

## Oc1cc(O)cc(/C=C/c2ccc(O)c(O)c2)c1
SEM cells; HPLM + 10% dialyzed FBS
  AUC of viability dose-response curve: 413
SEM cells; RPMI 5 mM glucose + 10% FBS
  AUC of viability dose-response curve: 430
SEM cells; [1]
  AUC of viability dose-response curve: 390
NOMO1; HPLM + 10% dialyzed FBS
  AUC of viability dose-response curve: 442
NOMO1; RPMI 5 mM glucose + 10% FBS
  AUC of viability dose-response curve: 416
NOMO1; [1]
  AUC of viability dose-response curve: 431
P12-Ichikawa; HPLM + 10% dialyzed FBS
  AUC of viability dose-response curve: 449
P12-Ichikawa; RPMI 5 mM glucose + 10% FBS
  AUC of viability dose-response curve: 452
P12-Ichikawa; [1]
  AUC of viability dose-response curve: 444

## CCNc1cc(NC2CCC(O)CC2)nc(Nc2ccc3c(ccn3Cc3ccccc3)c2)n1 (stereo unspecified)
SEM cells; HPLM + 10% dialyzed FBS
  AUC of viability dose-response curve: 471
SEM cells; RPMI 5 mM glucose + 10% FBS
  AUC of viability dose-response curve: 471
SEM cells; [1]
  AUC of viability dose-response curve: 466
NOMO1; HPLM + 10% dialyzed FBS
  AUC of viability dose-response curve: 471
NOMO1; RPMI 5 mM glucose + 10% FBS
  AUC of viability dose-response curve: 472
NOMO1; [1]
  AUC of viability dose-response curve: 464
P12-Ichikawa; HPLM + 10% dialyzed FBS
  AUC of viability dose-response curve: 474
P12-Ichikawa; RPMI 5 mM glucose + 10% FBS
  AUC of viability dose-response curve: 467
P12-Ichikawa; [1]
  AUC of viability dose-response curve: 469

## CC[C@@]1(O)C[C@H](O[C@H]2C[C@H](N(C)C)[C@H](O[C@H]3C[C@H](O)[C@H](O[C@H]4CCC(=O)[C@H](C)O4)[C@H](C)O3)[C@H](C)O2)c2c(cc3c(c2O)C(=O)c2c(O)cccc2C3=O)[C@H]1C(=O)OC
SEM cells; HPLM + 10% dialyzed FBS
  AUC of viability dose-response curve: 217
SEM cells; RPMI 5 mM glucose + 10% FBS
  AUC of viability dose-response curve: 225
SEM cells; [1]
  AUC of viability dose-response curve: 200
NOMO1; HPLM + 10% dialyzed FBS
  AUC of viability dose-response curve: 426
NOMO1; RPMI 5 mM glucose + 10% FBS
  AUC of viability dose-response curve: 430
NOMO1; [1]
  AUC of viability dose-response curve: 410
P12-Ichikawa; HPLM + 10% dialyzed FBS
  AUC of viability dose-response curve: 463
P12-Ichikawa; RPMI 5 mM glucose + 10% FBS
  AUC of viability dose-response curve: 417
P12-Ichikawa; [1]
  AUC of viability dose-response curve: 425

## CC(C)NCC(O)c1ccc(NS(C)(=O)=O)cc1 (stereo unspecified)
SEM cells; HPLM + 10% dialyzed FBS
  AUC of viability dose-response curve: 466
SEM cells; RPMI 5 mM glucose + 10% FBS
  AUC of viability dose-response curve: 447
SEM cells; [1]
  AUC of viability dose-response curve: 468
NOMO1; HPLM + 10% dialyzed FBS
  AUC of viability dose-response curve: 460
NOMO1; RPMI 5 mM glucose + 10% FBS
  AUC of viability dose-response curve: 447
NOMO1; [1]
  AUC of viability dose-response curve: 461
P12-Ichikawa; HPLM + 10% dialyzed FBS
  AUC of viability dose-response curve: 464
P12-Ichikawa; RPMI 5 mM glucose + 10% FBS
  AUC of viability dose-response curve: 472
P12-Ichikawa; [1]
  AUC of viability dose-response curve: 457

## C#C[C@]1(O)CC[C@H]2[C@@H]3CCc4cc(OC)ccc4[C@H]3CC[C@@]21C
SEM cells; HPLM + 10% dialyzed FBS
  AUC of viability dose-response curve: 444
SEM cells; RPMI 5 mM glucose + 10% FBS
  AUC of viability dose-response curve: 470
SEM cells; [1]
  AUC of viability dose-response curve: 471
NOMO1; HPLM + 10% dialyzed FBS
  AUC of viability dose-response curve: 453
NOMO1; RPMI 5 mM glucose + 10% FBS
  AUC of viability dose-response curve: 457
NOMO1; [1]
  AUC of viability dose-response curve: 457
P12-Ichikawa; HPLM + 10% dialyzed FBS
  AUC of viability dose-response curve: 433
P12-Ichikawa; RPMI 5 mM glucose + 10% FBS
  AUC of viability dose-response curve: 468
P12-Ichikawa; [1]
  AUC of viability dose-response curve: 471

## COc1cccc2c1C(=O)c1c(O)c3c(c(O)c1C2=O)C[C@@](O)(C(C)=O)C[C@@H]3O[C@H]1C[C@H](N)[C@H](O)[C@H](C)O1
SEM cells; HPLM + 10% dialyzed FBS
  AUC of viability dose-response curve: 192
SEM cells; RPMI 5 mM glucose + 10% FBS
  AUC of viability dose-response curve: 190
SEM cells; [1]
  AUC of viability dose-response curve: 209
NOMO1; HPLM + 10% dialyzed FBS
  AUC of viability dose-response curve: 265
NOMO1; RPMI 5 mM glucose + 10% FBS
  AUC of viability dose-response curve: 262
NOMO1; [1]
  AUC of viability dose-response curve: 259
P12-Ichikawa; HPLM + 10% dialyzed FBS
  AUC of viability dose-response curve: 274
P12-Ichikawa; RPMI 5 mM glucose + 10% FBS
  AUC of viability dose-response curve: 264
P12-Ichikawa; [1]
  AUC of viability dose-response curve: 263
